Assay results taken from ChEMBL document CHEMBL1153781, “Prediction of volume of distribution values in human using immobilized artificial membrane partitioning coefficients, the fraction of compound ionized and plasma protein binding data” (Eur J Med Chem, 2009).

What was measured:
Plasma = settings: human
clinical = settings: human, in vivo
[1] = Dissociation constant, pKa of the compound; assay type: physicochemical

O=C(O)c1ccccc1O [SALICYLIC ACID]
fu (Plasma): 0.05
Vd (clinical): 0.17 L/kg

COCCOC(=O)C1=C(C)NC(C)=C(C(=O)OC(C)C)C1c1cccc([N+](=O)[O-])c1 (stereo unspecified) [NIMODIPINE]
fu (Plasma): 0.05
Vd (clinical): 1.5 L/kg

Nc1cc(N2CCCCC2)nc(N)[n+]1[O-] [MINOXIDIL]
fu (Plasma): 1
pKa [1]: 4.6
Vd (clinical): 3 L/kg

C[C@]12C=CC(=O)C=C1CC[C@H]1[C@@H]3C[C@@H](O)[C@](O)(C(=O)CO)[C@@]3(C)C[C@H](O)[C@@]12F [TRIAMCINOLONE]
fu (Plasma): 0.32
Vd (clinical): 1.76 L/kg

CN1C(C(=O)Nc2ccccn2)=C(O)c2ccccc2S1(=O)=O [PIROXICAM]
fu (Plasma): 0.01
Vd (clinical): 0.14 L/kg

CCCOC(C(=O)OC1CCN(C)CC1)(c1ccccc1)c1ccccc1 [PROPIVERINE]
fu (Plasma): 0.075
pKa [1]: 6.65
Vd (clinical): 1.9 L/kg

CN1CC[C@]23c4c5ccc(O)c4O[C@H]2[C@@H](O)C=C[C@H]3[C@H]1C5 [MORPHINE]
fu (Plasma): 0.61

COc1ccc2c3c1O[C@H]1[C@@H](O)C=C[C@H]4[C@@H](C2)N(C)CC[C@@]341 [CODEINE]
fu (Plasma): 0.93

CN[C@@H](C)[C@@H](O)c1ccccc1 [PSEUDOEPHEDRINE]
fu (Plasma): 1
Vd (clinical): 2.84 L/kg

C[C@]12CCC(=O)C=C1CC[C@@H]1[C@@H]2[C@@H](O)C[C@@]2(C)[C@H]1CC[C@]2(O)C(=O)CO [HYDROCORTISONE]
fu (Plasma): 0.09

COc1cccc(C2(O)CCCCC2CN(C)C)c1 (stereo unspecified) [TRAMADOL]
fu (Plasma): 0.96
pKa [1]: 8.3

O=C(N[C@H](CO)[C@H](O)c1ccc([N+](=O)[O-])cc1)C(Cl)Cl [CHLORAMPHENICOL]
fu (Plasma): 0.47

CCCNCC(O)COc1ccccc1C(=O)CCc1ccccc1 (stereo unspecified) [PROPAFENONE]
fu (Plasma): 0.05

CCC1(c2ccccc2)C(=O)NC(=O)NC1=O [PHENOBARBITAL]
fu (Plasma): 0.5
Vd (clinical): 0.63 L/kg

O=C(O)c1cc(=O)c2c(OCC(O)COc3cccc4oc(C(=O)O)cc(=O)c34)cccc2o1 [CROMOLYN]
fu (Plasma): 0
pKa [1]: 1.9
Vd (clinical): 0.32 L/kg

CCN1CCN(C(=O)N[C@@H](C(=O)N[C@@H]2C(=O)N3C(C(=O)O)=C(CSc4nnnn4C)CS[C@H]23)c2ccc(O)cc2)C(=O)C1=O [CEFOPERAZONE]
pKa [1]: 2.6

CN(C)CCC=C1c2ccccc2CCc2ccccc21 [AMITRIPTYLINE]
fu (Plasma): 0.06

CC(C(=O)O)c1cccc(C(=O)c2ccccc2)c1 (stereo unspecified) [KETOPROFEN]
Vd (clinical): 0.15 L/kg

O=C(O)Cc1ccccc1Nc1c(Cl)cccc1Cl [DICLOFENAC]
fu (Plasma): 0.01

CC(C)(C)NCC(O)c1ccc(O)c(CO)c1 (stereo unspecified) [ALBUTEROL]
fu (Plasma): 0.93

C[C@H]1[C@H](NC(=O)/C(=N\OC(C)(C)C(=O)O)c2csc(N)n2)C(=O)N1S(=O)(=O)O [AZTREONAM]
pKa [1]: 2.75

CC(=O)Nc1ccc(O)cc1 [ACETAMINOPHEN]
fu (Plasma): 1

CN1CCc2cccc3c2[C@H]1Cc1ccc(O)c(O)c1-3 [APOMORPHINE]
fu (Plasma): 0.5
Vd (clinical): 2 L/kg

CN(C)CCC(c1ccc(Cl)cc1)c1ccccn1 (stereo unspecified) [CHLORPHENIRAMINE]
fu (Plasma): 0.3

COc1ccc(Cl)cc1C(=O)NCCc1ccc(S(=O)(=O)NC(=O)NC2CCCCC2)cc1 [GLYBURIDE]
fu (Plasma): 0.01
Vd (clinical): 0.14 L/kg

NC(=O)c1cnccn1 [PYRAZINAMIDE]
fu (Plasma): 0.9
Vd (clinical): 0.7 L/kg

COc1ccc2c(c1)c(CC(=O)O)c(C)n2C(=O)c1ccc(Cl)cc1 [INDOMETHACIN]
fu (Plasma): 0.1
Vd (clinical): 0.1 L/kg

Cc1ccccc1N1C(=O)c2cc(S(N)(=O)=O)c(Cl)cc2NC1C (stereo unspecified) [METOLAZONE]
pKa [1]: 9.72
Vd (clinical): 1.61 L/kg

O=C1NC(=O)C(c2ccccc2)(c2ccccc2)N1 [PHENYTOIN]
fu (Plasma): 0.1
Vd (clinical): 0.64 L/kg

COC(=O)C1=C(C)NC(C)=C(C(=O)OCCN(C)Cc2ccccc2)C1c1cccc([N+](=O)[O-])c1 (stereo unspecified) [NICARDIPINE]
fu (Plasma): 0.05
Vd (clinical): 0.98 L/kg

CCC(C)(C)C(=O)O[C@H]1C[C@@H](C)C=C2C=C[C@H](C)[C@H](CC[C@@H]3C[C@@H](O)CC(=O)O3)[C@H]21 [SIMVASTATIN]
Vd (clinical): 0.98 L/kg

CC(C(=O)O)c1ccc(-c2ccccc2)c(F)c1 (stereo unspecified) [FLURBIPROFEN]
fu (Plasma): 0.01
Vd (clinical): 0.12 L/kg

CC(CN1c2ccccc2Sc2ccccc21)N(C)C (stereo unspecified) [PROMETHAZINE]
fu (Plasma): 0.07

COc1ccc2c(c1)C(=O)N(CCc1ccc(S(=O)(=O)NC(=O)NC3CCCCC3)cc1)C(=O)C2(C)C [GLIQUIDONE]
fu (Plasma): 0.01
pKa [1]: 5
Vd (clinical): 0.16 L/kg

CCC[C@@H]1C[C@@H](C(=O)N[C@@H]([C@H]2O[C@H](SC)[C@H](O)[C@@H](O)[C@H]2O)[C@@H](C)O)N(C)C1 [LINCOMYCIN]
fu (Plasma): 0.28
Vd (clinical): 1.3 L/kg

COc1cc(Cc2cnc(N)nc2N)cc(OC)c1OC [TRIMETHOPRIM]
fu (Plasma): 0.63

COc1c(N2CCNC(C)C2)c(F)cc2c(=O)c(C(=O)O)cn(C3CC3)c12 (stereo unspecified) [GATIFLOXACIN]
pKa [1]: 6
Vd (clinical): 1.75 L/kg

CC(=O)CC(c1ccccc1)c1c(O)c2ccccc2oc1=O (stereo unspecified) [WARFARIN]
fu (Plasma): 0.01
Vd (clinical): 0.14 L/kg

O=C(O)CCCc1ccc(N(CCCl)CCCl)cc1 [CHLORAMBUCIL]
Vd (clinical): 0.29 L/kg

CC(C)NCC(O)COc1cccc2ccccc12 (stereo unspecified) [PROPRANOLOL]
fu (Plasma): 0.1

CCOC(=O)[C@H](CCc1ccccc1)N[C@@H](C)C(=O)N1CCC[C@H]1C(=O)O
fu (Plasma): 0.4
Vd (clinical): 1.7 L/kg

Cc1cc(=O)n(-c2ccccc2)n1C [ANTIPYRINE]
fu (Plasma): 0.87

CCOC(=O)C1(c2ccccc2)CCN(C)CC1 [MEPERIDINE]
fu (Plasma): 0.42
pKa [1]: 10.5

CN(C)C(=N)N=C(N)N [METFORMIN]
Vd (clinical): 2.45 L/kg

COc1ccc2cc([C@H](C)C(=O)O)ccc2c1 [NAPROXEN]
fu (Plasma): 0.01

CN/C(=N/CCSCc1nc[nH]c1C)NC#N [CIMETIDINE]
fu (Plasma): 0.81

C[C@H]1O[C@@H](O[C@H]2[C@@H](O)C[C@H](O[C@H]3[C@@H](O)C[C@H](O[C@H]4CC[C@@]5(C)[C@H](CC[C@@H]6[C@@H]5C[C@@H](O)[C@]5(C)[C@@H](C7=CC(=O)OC7)CC[C@]65O)C4)O[C@@H]3C)O[C@@H]2C)C[C@H](O)[C@@H]1O [DIGOXIN]
Vd (clinical): 3.12 L/kg

CN1C(=O)CN=C(c2ccccc2)c2cc(Cl)ccc21 [DIAZEPAM]
fu (Plasma): 0.02

Cc1nnc(SCC2=C(C(=O)O)N3C(=O)[C@@H](NC(=O)Cn4cnnn4)[C@H]3SC2)s1 [CEFAZOLIN]
pKa [1]: 2.1

Cc1cnc(NC(=O)C2=C(O)c3ccccc3S(=O)(=O)N2C)s1 [MELOXICAM]
fu (Plasma): 0.006

CC(C)NCC(O)COc1ccc(CC(N)=O)cc1 (stereo unspecified) [ATENOLOL]
fu (Plasma): 0.91

C[C@]12C=CC(=O)C=C1CC[C@@H]1[C@@H]2C(=O)C[C@@]2(C)[C@H]1CC[C@]2(O)C(=O)CO [PREDNISONE]
fu (Plasma): 0.25

NS(=O)(=O)c1cc2c(cc1Cl)NCNS2(=O)=O [HYDROCHLOROTHIAZIDE]
fu (Plasma): 0.6
Vd (clinical): 0.83 L/kg

CCCN1CCCC[C@H]1C(=O)Nc1c(C)cccc1C [ROPIVACAINE]
fu (Plasma): 0.06
Vd (clinical): 0.55 L/kg

C[C@]12C=CC(=O)C=C1CC[C@@H]1[C@@H]2[C@@H](O)C[C@@]2(C)[C@H]1CC[C@]2(O)C(=O)CO [PREDNISOLONE]
fu (Plasma): 0.075

CCCCNC(=O)NS(=O)(=O)c1ccc(C)cc1 [TOLBUTAMIDE]
Vd (clinical): 0.14 L/kg

CC(=O)Oc1ccccc1C(=O)O [ASPIRIN]
fu (Plasma): 0.3
Vd (clinical): 0.15 L/kg

NC(=O)N1c2ccccc2C=Cc2ccccc21 [CARBAMAZEPINE]
fu (Plasma): 0.25
Vd (clinical): 1.4 L/kg

Nc1ccc(S(=O)(=O)Nc2ncccn2)cc1 [SULFADIAZINE]
fu (Plasma): 0.55
Vd (clinical): 0.92 L/kg

Cn1c(=O)c2c(ncn2CC(O)CO)n(C)c1=O (stereo unspecified) [DYPHYLLINE]
fu (Plasma): 0.6
Vd (clinical): 0.8 L/kg

CC[C@H](C)C(=O)O[C@H]1C[C@H](O)C=C2C=C[C@H](C)[C@H](CC[C@@H](O)C[C@@H](O)CC(=O)O)[C@H]21 [PRAVASTATIN]
fu (Plasma): 0.55
pKa [1]: 4.7

C=CC1=C(C(=O)O)N2C(=O)[C@@H](NC(=O)/C(=N\OCC(=O)O)c3csc(N)n3)[C@H]2SC1 [CEFIXIME]
fu (Plasma): 0.33
pKa [1]: 2.1

CCN1CCCC1CNC(=O)c1cc(S(N)(=O)=O)ccc1OC (stereo unspecified) [SULPIRIDE]
fu (Plasma): 0.6
Vd (clinical): 2.5 L/kg

CCCNC(C)C(=O)Nc1ccccc1C (stereo unspecified) [PRILOCAINE]
fu (Plasma): 0.715
pKa [1]: 7.9

CC(=O)[C@@]1(O)CC[C@H]2[C@@H]3C[C@H](C)C4=CC(=O)CC[C@]4(C)[C@H]3CC[C@@]21C
fu (Plasma): 0.1
Vd (clinical): 4.66 L/kg

CCC1(CCC(C)C)C(=O)NC(=O)NC1=O [AMOBARBITAL]
Vd (clinical): 1.05 L/kg

NC(N)=Nc1nc(CSCCC(N)=NS(N)(=O)=O)cs1 [FAMOTIDINE]
fu (Plasma): 0.83

COC1=CC(=O)C[C@@H](C)[C@]12Oc1c(Cl)c(OC)cc(OC)c1C2=O [GRISEOFULVIN]
fu (Plasma): 0.16
Vd (clinical): 1.5 L/kg

Cc1c(OCC(F)(F)F)ccnc1C[S+]([O-])c1nc2ccccc2[nH]1 (stereo unspecified) [LANSOPRAZOLE]
fu (Plasma): 0.03
Vd (clinical): 0.35 L/kg

CC1(C)S[C@@H]2[C@H](NC(=O)Cc3ccccc3)C(=O)N2[C@H]1C(=O)O [PENICILLIN G]
fu (Plasma): 0.425

C[C@]12CC[C@@H]3c4ccc(O)cc4CC[C@H]3[C@@H]1CC[C@@H]2O [ESTRADIOL]
fu (Plasma): 0.015

C[C@H]1COc2c(N3CCN(C)CC3)c(F)cc3c(=O)c(C(=O)O)cn1c23.C[C@H]1COc2c(N3CCN(C)CC3)c(F)cc3c(=O)c(C(=O)O)cn1c23.O [LEVOFLOXACIN]
fu (Plasma): 0.69
Vd (clinical): 1.36 L/kg

CCS(=O)(=O)CCn1c([N+](=O)[O-])cnc1C [TINIDAZOLE]
fu (Plasma): 0.88
Vd (clinical): 0.7 L/kg

Clc1cccc(Cl)c1N=C1NCCN1 [CLONIDINE]
fu (Plasma): 0.8

Nc1ncnc2c1ncn2CCOCP(=O)(O)O [ADEFOVIR]
fu (Plasma): 0.895
pKa [1]: 1.3

CO/N=C(\C(=O)N[C@@H]1C(=O)N2C(C(=O)O)=C(CSc3nc(=O)c(=O)[nH]n3C)CS[C@H]12)c1csc(N)n1 [CEFTRIAXONE]
fu (Plasma): 0.075
pKa [1]: 2.7

NNC(=O)c1ccncc1 [ISONIAZID]
fu (Plasma): 1
Vd (clinical): 0.67 L/kg

CN(C)CCC=C1c2ccccc2COc2ccccc21 [DOXEPIN]
fu (Plasma): 0.17
Vd (clinical): 11.7 L/kg

NS(=O)(=O)c1cc(C(=O)O)c(NCc2ccco2)cc1Cl [FUROSEMIDE]
fu (Plasma): 0.03
